# System: Staphylococcus aureus, ATCC 25923 (金黄色葡萄球菌,ATCC 25923)
# Assay: MIC by broth microdilution (微量肉汤稀释法)
# Type: cell-based
# Details: ATCC25923, 16 h, MH broth, pH 7.2~7.4, 35℃, 16~20 h
row,SMILES,MIC [µg/mL]
1,"COc1c(N2CCN3CCNC3C2)c(F)cc2c(=O)c(C(=O)O)cn(C3CC3)c12 (centres unmarked) [例子4, 7-(六氢咪唑并[1,2-a]吡嗪基)-1-环丙基-6-氟-1,4-二氢-8-甲氧基-4-氧代-3-喹啉羧酸]",< 0.1
2,"COc1c(N2CCN3CCNCC3C2)c(F)cc2c(=O)c(C(=O)O)cn(C3CC3)c12 (centres unmarked) [例子3, 7-(八氢-2H-吡嗪并[1,2-a]吡嗪基)-1-环丙基-6-氟-1,4-二氢-8-甲氧基-4-氧代-3-喹啉羧酸]",< 0.3
3,"COc1c(N2CCN3CCCC3C2)c(F)cc2c(=O)c(C(=O)O)cn(C3CC3)c12 (centres unmarked) [例子2, 7-(六氢吡咯并[1,2-a]吡嗪基)-1-环丙基-6-氟-1,4-二氢-8-甲氧基-4-氧代-3-喹啉羧酸]",< 0.1
4,"COc1c(N2CCN3CCCCC3C2)c(F)cc2c(=O)c(C(=O)O)cn(C3CC3)c12 (centres unmarked) [例子1, 7-(八氢-2H-吡啶并[1,2-a]吡嗪基)-1-环丙基-6-氟-1,4-二氢-8-甲氧基-4-氧代-3-喹啉羧酸]",< 0.3
5,"CC1COc2c(N3CCN(C)CC3)c(F)cc3c(=O)c(C(=O)O)cn1c23 (centres unmarked) [氧氟沙星, reference compound]",0.3

# Reference: patent publication CN102503942A, “一种氟喹诺酮衍生物及其制备和药物应用” (Individual, priority 2011, dated 2012)
